Paper PMC4038613, “A New Class of Multimerization Selective Inhibitors of HIV-1 Integrase” (PLoS Pathogens, 2014)
Where two headings read alike, the source gives them in different places.

Experiments:
HIV-1NL4-3 = experiment: microbe, parasite or virus in culture; assay type: cell-based
HIV-1 = experiment: Antiviral assay, late stage (inhibitor added to producer cells); assay type: cell-based; settings: Human immunodeficiency virus 1, virions prepared in presence of inhibitor, untreated target cells; called IC50
Method: Results represent mean ± SD from three independent experiments.
For late stage experiments, the progeny virions were prepared in the presence of the indicated concentrations of the test inhibitor or diluent control (DMSO) and were then used to infect untreated target cells.

HIV-1 virions [1] = assay type: cell-based; settings: virions produced in presence of 1 µM KF116
[2] = system: LEDGF/p75-dependent HIV-1 integration; experiment: HIV-1 integration site distribution (ligation-mediated PCR, 454-pyrosequencing); assay type: cell-based
HIV-1 expression = assay type: cell-based; settings: for inhibition of HIV-1 expression: target cells
HIV-1 particles = experiment: Virus production (Gag p24 ELISA) and virion protein processing (immunoblot); assay type: cell-based; settings: 1 µM KF116
Method: HEK293T cells (2×10^6 cells/100 mm culture dish in 10 ml of complete medium) were transfected with HIV-1 provirus (pNL4-3) and cultured for 24 h to ensure expression of the provirus as described above. Next, the cells were treated with the indicated inhibitor or diluent control (DMSO) for 1 h. The culture supernatant was replaced with fresh complete medium containing either the inhibitor or DMSO, and cells were then cultured for another 24 h to allow for the production of HIV-1 particles in the presence of the inhibitor or diluent control. The virus containing cell-free supernatant was collected, filtered through 0.45 µm filter, and the amounts of viral particles produced was measured by HIV-1 Gag p24 ELISA (ZeptoMetrix) following manufacturer's protocol. Equivalent amounts of virions (∼5 µg p24 based on HIV-1 p24 ELISA) were concentrated over a 25% sucrose cushion by ultra-centrifugation at 28,000 rpm for 2 h at 4°C in SW41 rotor (Beckman). Pelleted virions were lysed in 100 µL RIPA buffer containing 50 mM Tris (pH 8.0), 150 mM NaCl, 0.1% SDS, 1% Triton-X, 1% deoxycholic acid, and 2 mM PMSF. Indicated amounts of concentrated virions were resolved by SDS-PAGE (4–12%, Invitrogen) and immunoblotted.
HEK293T cells were transfected with HIV-1 provirus (pNL4-3). […] (A) Virus-containing cell-free supernatant were harvested and cell-free Gag was measured by HIV-1 Gag p24 ELISA. […]

HIV-1 virions [3] = experiment: Virion RNA packaging; assay type: cell-based; settings: 1 µM KF116
Method: HEK293T cells (2×10^6 cells/100 mm culture dish in 10 ml of complete medium) were transfected with HIV-1 provirus (pNL4-3) and cultured for 24 h to ensure expression of the provirus as described above. Next, the cells were treated with the indicated inhibitor or diluent control (DMSO) for 1 h. The culture supernatant was replaced with fresh complete medium containing either the inhibitor or DMSO, and cells were then cultured for another 24 h to allow for the production of HIV-1 particles in the presence of the inhibitor or diluent control. The virus containing cell-free supernatant was collected, filtered through a 0.45 µm filter, and concentrated over a 25% sucrose cushion by ultra-centrifugation at 28,000 rpm for 2 h at 4°C in SW41 rotor (Beckman). […] RNA was isolated from the pelleted virions and subsequent cDNA preparations were used for gag quantitative PCR as described above. Relative virion RNA packaging was calculated by normalizing virion Gag RNA copy numbers to Gag p24.
In parallel, aliquots of cell-free virus-containing supernatant were used to measure the amount of viral particles produced using HIV-1 Gag p24 ELISA. Virion RNA packaging was calculated by normalizing virion Gag RNA copy numbers to Gag p24. […]

[4] = system: initiation of reverse transcription; experiment: tRNALys3 primer extension assay; assay type: biochemical, HIV-1; settings: virions produced with 1 µM KF116
IN in HIV-1 virions = IN in HIV-1 virions (Human immunodeficiency virus type 1 group M subtype B, UniProt P12497); experiment: Virion-associated IN cross-linking assay (BS3); assay type: cell-based; settings: virions from cells treated with 1 µM KF116
Method: (A) DLS analysis of KF116-induced multimerization of recombinant IN. […] The indicated volumes of cross-linked reaction products were resolved by SDS-PAGE and immunoblotted with HIV-1 IN antibody. The bands corresponding to IN “monomer”, “dimer”, and “higher order oligomers” are indicated.
The IN cross-linking assay was performed as described previously. Briefly, concentrated virions equivalent to 50 ng of HIV-1 p24 were cross-linked with 50 µM bis(sulfosuccinimidyl)suberate (BS^3) cross-linking reagent (Thermo Scientific). Subsequent cross-linked reaction products were quenched and resolved by SDS-PAGE (4–12%, Invitrogen) and immunoblotted.

HIV-1 IN [5] = target: T1, HIV-1 IN (Human immunodeficiency virus type 1 group M subtype B, UniProt P12497); settings: IC50 for inhibiting IN-LEDGF/p75 binding divided by EC50 for aberrant IN multimerization; fold
Method: (§1) HTRF-based IN multimerization and IN-LEDGF/p75 binding assays were carried out as described previously [33]. The HTRF signal was recorded using a Perkin Elmer Multimode EnSpire plate reader.

HIV-1 IN [6] = target: T1, HIV-1 IN; experiment: biochemical
Method: as §1

[7] = Target, 5 µM, *** P<0.001 vs DMSO
[8] = target cells, 10 µM, *** P<0.001 vs DMSO

Work on `Cc1nc(-c2nc3ccc(Cl)cc3[nH]2)c(C)c(-c2ccccc2)c1C(OC(C)(C)C)C(=O)O` (centres unmarked) [KF116] yielded an IC50 (HIV-1NL4-3; Human immunodeficiency virus 1, read-out: Antiviral activity (IC50), HIV-1NL4-3, full replication cycle) of about 24 nM, an EC50 (HIV-1NL4-3; Human immunodeficiency virus 1, read-out: EC50, Full Replication Cycle, KF116 added to both producer and target cells, mean ± SD, three experiments) of 24 nM and an EC50 (HIV-1) of about 30 nM. For the same molecule, the “eccentric cores among mature virions” value (HIV-1 virions [1]) was about 95%, the “% in RefSeq (HIV-1 integration frequency)” value (from here on “% in RefSeq”) ([2]; Producer, 100 nM) was 82.67% and the “% in known genes (HIV-1 integration frequency)” value (“% in known genes” below) ([2]; Producer, 100 nM) was 83.79%. For the same molecule, the “% in RefSeq” value [2, 7] was 81.17%, the “% in known genes” value [2, 7] was 82.38% and the “% in RefSeq” value [2, 8] was 83.17%. The “% in known genes” value [2, 8] was 84.31%, the “inhibition of HIV-1 expression” value (HIV-1 expression; 5 µM) was “did not significantly inhibit HIV-1 expression” and the “inhibition of HIV-1 expression” value (HIV-1 expression; 10 µM) was “did not significantly inhibit HIV-1 expression”. The “reduction in target cell HIV-1 expression” value (HIV-1 expression; virus-producer cells treated with 0.1 µM) was about 77%, the “effect on HIV-1 Gag/Gag-Pol protein processing” value (HIV-1 particles) was “did not affect” and the “effect on virus particle production” value (HIV-1 particles) was “did not affect”. The “effect on viral genomic RNA packaging” value (HIV-1 virions [3]) was “did not affect”, the “effect on annealing of tRNALys3 primer to viral RNA template (primer extension)” value [4] was “did not significantly affect” and the “IN multimerization in virions after BS3 cross-linking” value (IN in HIV-1 virions) was “levels of IN dimers increased and new slower migrating bands were observed”. For the same molecule, the “Selectivity ratio, IC50 IN-LEDGF/EC50 aberrant IN multimerization” value (HIV-1 IN [5]) was 58.5 and the EC50 (HIV-1 IN [6]) was 86 ± 6 nM.
